Laboratory results as given in US7049331B2, “1,2,4-thiadiazole derivatives as melanocortin receptor modulators” (Ortho-McNeil Pharmaceutical, Inc., priority 2001, dated 2006).
Where two headings read alike, the source gives them in different places.

Key:
Hippocampal Cells = assay: Neurite Cell Outgrowth Assay, hippocampal cells; type: cell-based; conditions: Rattus norvegicus; 50 nM; percent change over the vehicle response; NA = no change/not active
Excerpt: (§1) Dissociated hippocampal and cortical cell cultures were established from embryonic day 18 rat fetuses as described by Mattson, M. P., Barger, S. W., Begley, J, and Mark, R. J., Methods Cell Biol., 1994, 46:[…]. Briefly, fetuses were removed via cesarean section from pregnant moms (Sprague-Dawley) and anesthetized with halothane according to the AVMA Panel on Euthanasia. Pups were decapitated and the brains were removed and placed in HEPES-buffered Hank's Balanced Salt solution (HBSS; Gibco). The hippocampi and cortices were dissected out and pooled according to tissue-type. Tissue was trypsinized for 15 min (1 mg/ml trypsin-HBSS; Worthington), rinsed with fresh HBSS, incubated in trypsin inhibitor (1 mg/ml; Sigma) for 5 min, rinsed again with fresh HBSS and then triturated in 1 ml fresh HBSS with a fire-polished glass pipette. Dissociated cells were seeded at 30,000 cells/well onto poly-D-lysine coated 96-well plates (Collaborative BioScience). Each well contained 100 μl of Eagle's Minimal Essential Media (MEM; Gibco) supplemented with 26 mM NaHCO3 (Sigma), 56 mM glucose (Sigma), 15 mM KCl (Sigma), 1 mM sodium pyruvate (Sigma), 1.1 mM L-glutamine (Sigma), 10% (v/v) heat-inactivated fetal bovine serum (Hyclone), and 0.001% gentamicin sulfate (Sigma) (pH 7.4). Cells were allowed to attach for 24 h in a humidified 37° C. 5% CO2 incubator before experimental treatment. The culture media was aspirated and exchanged with fresh media every 3 days.
(§2) Twenty-four hours after plating, cultures were treated with vehicle (PBS+0.1% BSA), alpha-melanocyte stimulating hormone (α-MSH) or test compound (diluted in DPBS). Each treatment condition was run in quadruplicate. On the third day in culture, the media was aspirated off and replaced with fresh media and test compound. At one week in culture, the cells were fixed with 10% phosphate-buffered formalin for 15 min, then rinsed with DPBS (Sigma) and placed in blocking serum for 30 min (horse serum; 1:50 dilution in DPBS; Vector Labs). The cultures were rinsed again with DPBS and then incubated in primary antibody for 2 hr (microtubule-associated protein-2 (MAP-2) is a selective marker for dendritic processes; anti-mouse monoclonal (Chemicon); 1:1000 dilution of MAP-2 in antibody diluent (Zymed)). Negative control wells were incubated in antibody diluent alone. Background signal was determined by blank wells (cell-free) incubated with or without antibody. Cultures were rinsed again with DPBS and then placed in fluorescein for 1 hr (FITC; anti-mouse IgG; rat adsorbed; 1:50 dilution in DPBS; Vector Labs). Cultures were rinsed a final time with DPBS and the plates were then read on a Cytofluor 4000 fluorescence plate reader. Neurite outgrowth was expressed as percent change from control (vehicle).
(§3) The data are expressed as percent change over the vehicle response. All compounds were screened at 50 nM. The abbreviation NA indicates no change/not active; the abbreviation ND indicates a compound not tested/response not determined.

Food-Deprived Rats = assay: Rodent Feeding: Food Intake in Food-Deprived Rats (MC-4); type: in vivo, rat; conditions: for change in vivo at 10 mg/kg / change in vivo at 30 mg/kg: Rattus norvegicus; for change in vivo at 30 mg/kg: po
Excerpt: Rodent Feeding: Food Intake in Food-Deprived Rats (MC-4)
Male Long-Evans rats (180–200 grams) were housed individually and maintained on a once-a-day feeding schedule (i.e.10 a.m. until 4 p.m.) for five days following quarantine to allow the animals to acclimate to feeding on powdered chow (#5002 PMI Certified Rodent Meal) during the allotted time. The chow was made available in an open jar, anchored in the cage by a wire, with a metal follower covering the food to minimize spillage. Water was available ad-libitum.
Animals were fasted for 18 hours prior to testing. At the end of the fasting period, animals were administered either a test compound or vehicle. Vehicle and test compound were administered either orally (5 mL/kg) 60 minutes prior to the experiment, subcutaneously (1 mL/kg) 30 minutes prior to the experiment, or intraperitoneally (1 mL/kg) 30 minutes prior to the experiment. Test compounds were administered orally as a suspension in aqueous 0.5% methylcellulose-0.4% Tween 80, or intraperitoneally as a solution or suspension in PEG 200; compound concentrations typically ranged from 1 mg/kg to 100 mg/kg, preferably from 10–30 mg/kg. Food intake was measured at 2, 4, and 6 hours after administration by weighing the special jar containing the food before the experiment and at the specified times. Upon completion of the experiment, all animals were given a one-week washout period before re-testing.
Following the procedure described above, select compounds of the present invention were tested to measure the effect on food intake in fasted rats, as listed in Table 5 and 6.

[1] = target: T1, melanocortin MC-4 receptor (Homo sapiens, UniProt P32245); assay: MC-4 receptor binding (Filtration); conditions: Filtration; read-out: IC50 MC-4 (μM) (Filtration)
T1 construct: purchased Receptor Biology Inc
T1 sequence (P32245 whole entry): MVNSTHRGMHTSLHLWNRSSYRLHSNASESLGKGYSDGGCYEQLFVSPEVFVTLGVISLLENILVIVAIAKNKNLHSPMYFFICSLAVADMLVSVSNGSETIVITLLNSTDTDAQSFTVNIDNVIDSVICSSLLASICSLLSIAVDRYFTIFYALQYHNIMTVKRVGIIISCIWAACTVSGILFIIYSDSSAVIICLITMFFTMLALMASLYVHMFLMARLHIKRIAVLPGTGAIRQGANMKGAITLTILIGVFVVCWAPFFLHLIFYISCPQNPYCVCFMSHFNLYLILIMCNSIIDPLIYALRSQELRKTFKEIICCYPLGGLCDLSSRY
Protocol: The procedures described above for the melanocortin MC-4 receptor were repeated for the melanocortin MC-3 receptor. Following the procedures described, representative compounds of the present invention were tested for binding in the MC-4 and/or MC-3 assay, as listed in Table 4.

[2] = target: T1, melanocortin MC-4 receptor; assay: Melanocortin MC-4 Receptor Binding Assay (SPA)
Protocol: Melanocortin MC-4 Receptor Binding Assay Melanocortin [MC-4]-membrane [purchased from Receptor Biology Inc] was coupled to wheat germ agglutinin coated polyvinyl toluene-Scintillation Proximity Assay beads [purchased from Amersham Pharmacia Inc.] for 30 min at 25° C. Into each well of a 96-well Opti plate [purchased from Packard, Calif.], 2.5 μg of membrane and 0.25 mg of beads were mixed in a volume of 100 μL media. […] Test compounds (1.5 μL) at 1 mM in 30% DMSO-50 mM HEPES, pH 7.4 buffer was added to separate wells on the plate. Radioactive ligand ^125I-NDP-melanocyte stimulating hormone [NEN, 2000Ci/mmol] was added to each well (48.5 μL per well, 40 pM final concentration). The plate was then sealed and let stand for 16 hr at 25° C. NDP-Melanocyte stimulating hormone peptide and α-melanocyte stimulating hormone peptide [purchased from Palomar Research Inc, 1 μM] were used as reference inhibitor compounds to define non-specific binding (N). Total binding (T) was defined using 30% DMSO-50 mM HEPES, pH 7.4 buffer. Bound radioactivity for each well (Y), measured at counts per minute (cpm) was measured in a TopCount [Packard, Calif.]. Percent inhibition was calculated as: […] The procedures described above for the melanocortin MC-4 receptor were repeated for the melanocortin MC-3 receptor. Following the procedures described, representative compounds of the present invention were tested for binding in the MC-4 and/or MC-3 assay, as listed in Table 4.

Cortical Cells = assay: Neurite Cell Outgrowth Assay, cortical cells; type: cell-based; conditions: Rattus norvegicus; 50 nM; percent change over the vehicle response; NA = no change/not active
Excerpt: as §1, §2, §3

MC5-R = MC5-R (Homo sapiens, UniProt P33032); assay: MC5-R binding
Sequence of MC5-R (P33032 whole entry): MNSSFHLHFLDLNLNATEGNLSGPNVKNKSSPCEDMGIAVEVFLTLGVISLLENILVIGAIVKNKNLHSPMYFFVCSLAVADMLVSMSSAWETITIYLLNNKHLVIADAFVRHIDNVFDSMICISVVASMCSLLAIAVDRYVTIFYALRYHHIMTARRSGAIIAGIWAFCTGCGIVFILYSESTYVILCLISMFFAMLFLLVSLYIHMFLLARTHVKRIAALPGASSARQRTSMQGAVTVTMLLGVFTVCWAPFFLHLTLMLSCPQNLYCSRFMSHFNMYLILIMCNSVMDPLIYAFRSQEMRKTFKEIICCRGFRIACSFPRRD

human sebocytes = assay: Visual observation of lipid granule formation in sebocytes; type: cell-based
Protocol: Semiconfluent cultures of 3T3 mouse fibroblasts (Swiss Albino mouse, ATCC CCL-92) were treated with mitomycin C (4 μg/ml) for 3 hours, trypsinized and seeded at a density of 2.5×10^5/9.5 cm^2 tissue culture plate in Dulbeccos Minimal Essential Medium (DMEM) containing 10% Colorado Calf Serum, PNC (100U/ml), STM (100 μg/ml), L glutamine (0.3 mg/ml), sodium pyruvate (1 mM) and nonessential amino acids (100 μM). The cells were incubated at 37° C. for 24 hours prior to their use as a feeder layer for sebocytes.
Human sebocytes were isolated from Dermatome shavings of postoperative pieces of human skin at 0.4–0.8 mm depths (this part of the skin was previously shown to be enriched in sebaceous glands). Shavings so obtained were treated with 1% Dispase in Iscoves medium containing 10% serum for 20 min at 37° C. The tissue was then placed in 0.3% trypsin/1% EDTA in Phosphate Buffered Saline (PBS) for 10 minutes at 37° C. Following this incubation the cells were gently scraped from the tissue in Growth medium (GM) containing DMEM/F12 media mixture (3:1), supplemented with 8% heat inactivated FBS, 2% heat inactivated human serum (HS), 1 mM sodium pyruvate, epidermal growth factor (10 ng/ml), insulin (10 μg/ml), hydrocortisone (0.4 μg/ml) and +/−cholera toxin (100 μg/ml), L-glutamine and antibiotics. Cells so obtained were filtered through nylon mesh ([…]), centrifuged at 750 RPM, re-suspended in GM and counted.
Resultant cells from the above isolation procedure were plated on the 3T3 feeder layers at 2×10^5/9.5 cm^2 in growth medium and maintained at 37° C. and 5% CO2 for 3 days (Phase I). Following the initial growth period they were transferred to a transition medium (TM) that consisted of DMEM/F12 media supplemented with 1 mM sodium pyruvate, insulin ([…]), transferrin ([…]) and selenium (5.5 μg/ml) (ITS), 2% heat inactivated FBS and 2% heat inactivated human serum as well as +/−cholera toxin (ch.t.) (100 μg/ml), L-glutamine and antibiotics (Phase II). Three days later the cells were changed to differentiation medium (DM), DMEM/F12 supplemented with ITS, 3,3′,5-triido-L-thyronine sodium (3 nM), 1%(v/v) trace element mix and the choice of differentiation agent i.e. bovine pituitary extract (10 μg/ml). This medium was changed every 3 days (Phase III).
Hormones, mixture of hormones i.e. bovine pituitary extract or compounds to be tested were added to the culture at the beginning of phase III. Two criteria were used to evaluate the effect of these materials on sebaceous cultures: 1) visual observations and 2) evaluation of sebaceous lipid accumulation and synthesis. The evaluation of lipid accumulation completed using the Nile red method. This method relies on visualization of neutral lipids by Nile red and quantitation by reading of fluorescence at 535 nm excitation, 580 nm emission using a plate reader. The lipid synthesis was evaluated by radioactive labeling using ^14C acetate and quantified by Bio Rad Phosphoimager (Molecular Imager, FX) using 4.1 Software.
Quantitation of accumulation/inhibition of neutral lipids in sebocytes was accomplished by Nile red binding assay. Briefly, following exposure of sebocytes to test compounds, the cells were allowed to interact with 1 μM Nile red in Hanks buffered saline solution containing DMSO and Pluronic F127. After 4 hours of incubation, washing and incubation overnight, the fluorescence was read at 535 excitation and 580 emission using a fluorescence plate reader.
Following the procedure described above, select compounds of the present invention were tested for visual and Nile red evaluation of lipid accumulation, with results as listed in Table 9.
Following the procedure described above, select compounds of the present invention were tested for their inhibitory effect on differentiation of human sebocytes. […]

Row | SMILES | activation at 0.05 µM (Hippocampal Cells) [%] | change in vivo at 10 mg/kg (Food-Deprived Rats; ip, 2 h, ip, read-out: Change in Food Intake 0–2 hrs (%)) [%] | change in vivo at 10 mg/kg (Food-Deprived Rats; ip, 6 h, ip, read-out: Change in Food Intake 2–6 hrs (%)) [%] | change in vivo at 30 mg/kg (Food-Deprived Rats; 2 h, read-out: Change in Food Intake 0–2 hrs (%)) [%] | change in vivo at 30 mg/kg (Food-Deprived Rats; 6 h, read-out: Change in Food Intake 2–6 hrs (%)) [%] | Food Intake 2–6 hrs (Food-Deprived Rats; fasted rats, 10μ, ip) [g] | Food Intake 0–2 hrs (Food-Deprived Rats; fasted rats, ip) [g] | IC50 [1] [µM] | IC50 [2] [nM] | activation at 0.05 µM (Cortical Cells) [%] | IC50 (MC5-R) [nM] | Visual* 0.4 μM (inhibition of lipid granule formation) (human sebocytes; 0.4 μM) | Visual* 0.8 μM (inhibition of lipid granule formation) (human sebocytes; 0.8 μM)
1 | COc1ccc(Nc2nc(-c3ccccc3)[n+](-c3ccc(C)cc3)s2)cc1 [Compound 1] | 6 | -11.6 | -37 | -21.2 | -6.7 | 8.43 | 7.29 | 1.1 | 174 | – | – | – | –
2 | COc1ccc(Nc2nc(-c3ccccc3)[n+](-c3ccc(Cl)cc3)s2)cc1 [Compound 16] | 8 | – | – | – | – | – | – | 4.3 | 424 | 18 | – | – | –
3 | COc1ccccc1Nc1nc(-c2ccccc2)[n+](-c2ccc(Cl)cc2)s1 [Compound 17] | 8 | – | – | – | – | – | – | 7.7 | 351 | 17 | – | – | –
4 | Cc1ccc(Nc2nc(-c3ccccc3)[n+](-c3ccc(Cl)cc3)s2)cc1 [Compound 18] | 17 | – | – | – | – | – | – | 6 | 463 | 17 | – | – | –
5 | Clc1ccc(-[n+]2sc(Nc3ccccc3Cl)nc2-c2ccccc2)cc1 [Compound 21] | 27 | – | – | – | – | – | – | 7.8 | 392 | 2 | – | – | –
6 | COc1ccccc1Nc1nc(-c2ccc(C)cc2)[n+](-c2ccccc2OC)s1 [Compound 67] | – | – | – | – | – | – | – | – | 130 | – | 246 | ++ (++ =50%) | +++ (+++ = 75%)
7 | Cc1ccc(-n2s/c(=N/c3ccccc3)nc2-c2ccccc2)cc1 [Compound 82] | 14 | – | – | – | – | – | – | 1.5 | 826 | 15 | – | – | –
8 | COc1ccc(/N=c2\nc(-c3ccccc3)n(-c3ccc(C)cc3)s2)cc1 [Compound 83] | 11 | – | – | – | – | – | – | 1.9 | 833 | 9 | – | – | –
